Data reported in patent US20140186329A1, “POLYPHENOL ANALOGS TO TREAT ISCHEMIA” (priority 2011, published 2014).
pEC50: −log10 of the molar value. Read-outs that look alike come from different tables or passages of the source.

Tests used:
[1] = test system: HT22 cells; assay: In vitro ischemia assay (HT22 cell IAA assay, MTT); format: cell-based, mouse; conditions: for pEC50 / Emax: Mus musculus; for pEC50: HT-22, HT22 cells; for Emax: HT-22, HT22 Cell IAA assay, read-out: Max Protection; for EC50 in vitro ischemia (μM): HT22 cells
Method: Cell viability was determined by a modified version of 3-(4,5-dimethylthiazol-2-yl)-2,5-diphenyl tetrazolium bromide (MTT) assay based on the standard procedure (Maher, et al., Brain Research. (2007), supra). Cells were seeded onto 96-well microtiter plates at a density of 5×10^3 cells per well. For the in vitro ischemia assay, the next day, the medium was replaced with DMEM supplemented with 7.5% DFCS and the cells were treated with 20 μM iodoacetic acid (IAA) alone or in the presence of the different derivatives. After 2 hr the medium in each well was aspirated and replaced with fresh medium without IAA but containing the derivatives. 20 hr later, the medium in each well was aspirated and replaced with fresh medium containing 2.5 μg/ml MTT. After 4 hr of incubation at 37° C., the cells were solubilized with 100 μl of a solution containing 50% dimethylformamide and 20% SDS (pH 4.7). The absorbance at 570 nm was measured on the following day with a microplate reader (Molecular Devices). Results were confirmed by visual inspection of the wells. Controls included compound alone to test for toxicity and compound with no cells to test for interference with the assay chemistry.
For a primary screen, an in vitro ischemia model in combination with the HT22 nerve cell line (Maher, et al., Brain Research. (2007) 1173, 117-125) was chosen. […] To induce ischemia in the HT22 cells we used iodoacetic acid (IAA), a well-known, irreversible inhibitor of the glycolytic enzyme glyceraldehyde 3-phosphate dehydrogenase (G3PDH) (Winkler, et al., Exp. Eye Res. (2003) 76, 715-723). IAA has been used in a number of other studies to induce ischemia in nerve cells (Reshef, et al., Neurosci. Lett. (1997) 238, 37-40; Sperling, et al., Neursci. Lett. (2003) 351, 137-140; Rego, et al., Neurochem. Res. (1999) 24, 351-358; Sigalov, et al., J. Mol. Neurosci. (2000) 15, 147-154; and Reiner, et al., Neurosci. Lett. (1990) 119, 175-178), including several recent screens for neuroprotective molecules (Biraboneye, et al., J. Med. Chem. (2009) 52 (14), 4358-4369; Biraboneye, et al., Chem. Med. Chem. (2010) 5 (1), 79-85). The changes following IAA treatment of neural cells are very similar to those seen in animal models of ischemic stroke (Lipton, et al., Physiol. Rev. (1999) 79, 1431-1568) and include alterations in membrane potential (Reiner, et al., Neurosci. Lett. (1990) 119, 175-178), breakdown of phospholipids (Taylor, et al., J. Pharmacol. Exp. Ther. (1996) 276, 1224-1231), loss of ATP (Winkler, et al., Exp. Eye Res. (2003) 76, 715-723; Sperling, et al., Neursci. Lett. (2003) 351, 137-140) and an increase in reactive oxygen species (ROS) (Taylor, et al., J. Pharmacol. Exp. Ther. (1996), supra; and Sperling, et al., Neursci. Lett. (2003) 351, 137-140).
(§1) Cell viability was determined after 24 hr by the MTT assay. The ability to maintain GSH (GSH) was determined by treating HT22 cells with different doses of each derivative (1-10 μM) in the presence of 5 mM glutamate. After 24 hr cell extracts were prepared and analyzed for total GSH. Fisetin (10 μM) was used as a positive control. The ability to induce PC12 cell differentiation (PC 12 diff' n) was determined by treating PC12 cells in N2 medium with different doses of each derivative (1-10 μM) for 24 hr. Differentiation was assessed by visual inspection with Fisetin (10 μM) as a positive control. Anti-inflammatory activity (microglia) was assessed in N9 microglial cells treated with bacterial lipopolysaccharide alone or in the presence different doses of each derivative (1-10 μM) for 24 hr. Fisetin was used as a positive control. TEAC values, a measure of direct antioxidant activity, were determined using the ABTS decolorization assay.
For rapid screening of chemical libraries, a mouse HT22 hippocampal cell death assay induced by addition of the compound iodoacetic acid (IAA) was used. IAA is a well-known, irreversible inhibitor of the glycolytic enzyme glyceraldehyde 3-phosphate dehydrogenase (G3PDH). […]

[2] = test system: HT22 cells; assay: Maintenance of total GSH in the presence of glutamate; format: cell-based, mouse; conditions: derivative 1-10 μM, 5 mM glutamate, 24 hr
Method: Total intracellular glutathione was determined by a chemical assay as described (Maher, P. et al., Free Radical Research. (2006) 40 (10), 1105-1111).
(§2) Three secondary screens allowed assessment of three key activities of Fisetin that are highly relevant to stroke, as well as other neurological disorders: maintenance of glutathione (GSH), the major endogenous cellular antioxidant, inhibition of LPS-induced microglial activation, an indicator of anti-inflammatory activity and PC 12 cell differentiation, a measure of neurotrophic activity. All of these activities are relevant to the nerve cell loss seen in stroke (Gelderblom, et al., Stroke. 2009, 40 (5), 1849-1857; Pandya, et al., Cent. Nerv. Syst. Agents. Med. Chem. (2011) April 27; Lewerenz, et al., J. Neurochem. (2010) 113 (2), 502-504). […] To assess GSH maintenance, total intracellular GSH levels after a 24 hr treatment with the compound both in the absence and presence of glutamate, an inducer of GSH loss and oxidative stress (Tan, et al., Curr. Top. Med. Chem. (2001) 1, 497-506; Maher, et al., Free Radical Research. (2006) 40 (10), 1105-1111) was measured. Inhibition of LPS-induced microglial activation was determined by treating N9 mouse microglial cells with LPS alone and in the presence of the compounds and assaying NO release into the medium 24 hr later (Zheng, et al., Int. Immunopharmacol. (2008) 8, (3), 484-494). PC12 cell differentiation was determined by treating PC12 cells with the compounds and looking at neurite outgrowth after 24 hr. In all cases, Fisetin was used as a positive control (Sagara, et al., J. Neurochem. (2004) 90, 1144-1155).
as §1

[3] = test system: PC12 cells; assay: PC12 cell differentiation (neurite outgrowth); format: cell-based; conditions: N2 medium, derivative 1-10 μM, 24 hr, visual inspection
Method: PC 12 cells in N2 medium were treated with the derivatives (1-10 μM) or Fisetin (10 μM) as a positive control for 24 hr at which time the cells were scored for the presence of neurites. PC12 cells produce neurites much more rapidly when treated in N2 medium than when treated in regular growth medium. For each treatment, 100 cells in each of three separate fields were counted. Cells were scored positive if one or more neurites>1 cell body diameter in length were observed.
as §2, §1

[4] = TEAC, ABTS decolorization assay; conditions: relative to Trolox
Method: TEAC values for the flavonoids were determined as described (Maher, P. et al., Free Radical Research. (2006), supra). Briefly, 250 μl of 2,2′-azinobis(3-ethylbenzothiazoline 6-sulfonate) (ABTS) treated overnight with potassium persulfate and diluted to an OD of ˜0.7 at 734 nm was added to 2.5 μl of a derivative solution in ethanol. The change in absorbance due to the reduction of the ABTS radical cation was measured at 734 nm for 4 min. To calculate the TEAC, the gradient of the plot of the percentage inhibition of absorbance vs. concentration for the derivative in question was divided by the gradient of the plot for Trolox.
as §1

[5] = 20 μM IAA for 2 hr, viability after 24 hr by MTT, read-out: EC50 in vitro ischemia
[6] = 20 μM IAA, read-out: HT22 Cell IAA assay EC50
[7] = 20 μM IAA for 2 hr, viability after 24 hr by MTT

SMILES	pEC50 [1, 5]	GSH (ability to maintain GSH) [2]	PC12 diff'n (ability to induce PC12 cell differentiation) [3]	TEAC [4]	pEC50 [1, 6]	Emax [1] [%]	EC50 in vitro ischemia (μM) [1, 7]
COc1cc(-c2ccc(O)cc2O)nc2ccccc12 [CMS-083, 4-methoxy-2-(2,4-dihydroxyphenyl) quinoline]	< 6.30	no	no	0.05	–	–	–
CC(C)Oc1cc(-c2ccc(O)cc2O)nc2ccccc12 [CMS-084, 4-isopropoxy-2-(2,4-dihydroxyphenyl) quinoline]	6.68	no	no	0.27	6.68	–	–
Cc1cc(O)c(C(=O)/C=C/c2ccc(O)cc2O)cc1C [CMS-087, (E)-3-(2,4-dihydroxyphenyl)-1-(2-hydroxy-4,5-dimethylphenyl)prop-2-en-1-one]	7.30	no	yes	0.93	–	–	–
COc1ccc(/C=C/C(=O)c2cc(C)c(C)cc2O)cc1O [CMS-088, (E)-1-(2-hydroxy-4,5-dimethylphenyl)-3-(3-hydroxy-4-methoxyphenyl)prop-2-en-1-one]	6.70	no	no	0.12	–	–	–
COc1ccc(-c2oc3cc(C)c(C)cc3c(=O)c2O)cc1O [CMS-092, 3-hydroxy-2-(3-hydroxy-4-methoxyphenyl)-6,7-dimethyl-4H-chromen-4-one]	7.70	no	no	1.74	–	90	–
Cc1cc2oc(-c3ccc(O)cc3O)c(O)c(=O)c2cc1C [CMS-093, 2-(2,4-dihydroxyphenyl)-3-hydroxy-6,7-dimethyl-4H-chromen-4-one]	< 6.30	no	no	1.56	–	–	–
Cc1cc2oc(-c3ccc(O)cc3O)cc(=O)c2cc1C [CMS-094, 2-(2,4-dihydroxyphenyl)-6,7-dimethyl-4H-chromen-4-one]	< 6.30	no	no	0.15	–	–	–
COc1cc(-c2ccc(N(C)C)cc2)nc2ccccc12 [CMS-109, 4-methoxy-2-(4-dimethylaminophenyl)quinoline]	7.22	no	no	0.06	–	–	–
COc1cc(-c2ccc(N3CCCC3)cc2)nc2ccccc12 [CMS-110, 4-methoxy-2-(4-(pyrrolidin-1-yl)phenyl)quinoline]	–	no	no	0.27	–	–	no
COc1cc(-c2ccc([N+](=O)[O-])c(O)c2)nc2ccccc12 [CMS-111, 4-methoxy-2-(3-hydroxy-4-nitrophenyl)quinoline]	–	no	no	0.18	–	–	no
CC(C)Oc1cc(-c2ccc(N(C)C)cc2)nc2ccccc12 [CMS-112, 4-isopropoxy-2-(4-dimethylaminophenyl)quinoline]	7.30	no	no	0.15	–	–	–
CC(C)Oc1cc(-c2ccc(N3CCCC3)cc2)nc2ccccc12 [CMS-113, 4-isopropoxy-2-(4-(pyrrolidin-1-yl)phenyl)quinoline]	6.30	no	no	0.27	–	–	–
O=c1c(O)c(-c2ccc(N3CCCC3)cc2)oc2c1ccc1ccccc12 [CMS-114, 3-hydroxy-2-(4-(pyrrolidin-1-yl)phenyl)-4H-benzo[h]chromen-4-one]	7.15	no	yes	1.44	7.15	74	–
